From ChEMBL document CHEMBL1159078, “Bicyclic peptides as potent inhibitors of histone deacetylases: optimization of alkyl loop length” (Bioorg Med Chem Lett, 2010)
Where a SMILES comes first, the peptide text is derived from it. [ ]: non-standard residue; d: D form. The star is where a group is joined. Asu = N[C@@H](CCCCCC(=O)O)C(=O)O; dAhp(2) = CCCCC[C@@H](N)C(=O)O; Ahp(2) = CCCCC[C@H](N)C(=O)O; NHOH = ON*

Experiments:
Histone deacetylase 4 [1] = target: T1, Histone deacetylase 4 (Homo sapiens, UniProt P56524)
T1 sequence (P56524 whole entry): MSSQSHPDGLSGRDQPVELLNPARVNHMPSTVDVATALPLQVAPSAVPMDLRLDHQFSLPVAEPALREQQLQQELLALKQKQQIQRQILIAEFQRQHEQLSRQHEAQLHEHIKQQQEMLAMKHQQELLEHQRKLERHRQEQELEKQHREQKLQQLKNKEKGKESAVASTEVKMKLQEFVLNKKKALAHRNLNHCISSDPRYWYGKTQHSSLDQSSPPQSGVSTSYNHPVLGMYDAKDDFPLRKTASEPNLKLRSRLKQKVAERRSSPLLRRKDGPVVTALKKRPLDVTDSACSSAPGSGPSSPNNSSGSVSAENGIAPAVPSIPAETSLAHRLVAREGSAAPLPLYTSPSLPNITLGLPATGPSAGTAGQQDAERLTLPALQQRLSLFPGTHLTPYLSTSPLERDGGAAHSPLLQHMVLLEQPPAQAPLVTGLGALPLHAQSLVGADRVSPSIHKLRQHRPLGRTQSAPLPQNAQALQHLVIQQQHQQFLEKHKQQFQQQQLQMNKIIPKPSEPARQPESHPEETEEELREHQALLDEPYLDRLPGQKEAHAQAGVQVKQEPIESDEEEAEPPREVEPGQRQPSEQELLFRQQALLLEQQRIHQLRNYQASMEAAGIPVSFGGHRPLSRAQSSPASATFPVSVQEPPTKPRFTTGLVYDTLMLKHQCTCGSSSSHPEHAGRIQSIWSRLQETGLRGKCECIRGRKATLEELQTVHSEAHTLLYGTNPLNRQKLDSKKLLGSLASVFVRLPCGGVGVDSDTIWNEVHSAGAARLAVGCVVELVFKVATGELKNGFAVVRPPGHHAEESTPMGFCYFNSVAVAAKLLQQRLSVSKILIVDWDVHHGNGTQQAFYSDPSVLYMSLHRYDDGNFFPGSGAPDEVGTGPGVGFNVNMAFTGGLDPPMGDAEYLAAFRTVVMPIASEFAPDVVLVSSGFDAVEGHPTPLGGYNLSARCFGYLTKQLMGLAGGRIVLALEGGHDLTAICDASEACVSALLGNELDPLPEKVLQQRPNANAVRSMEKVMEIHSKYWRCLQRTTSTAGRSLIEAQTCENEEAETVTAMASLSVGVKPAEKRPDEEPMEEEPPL

Histone deacetylase 1 = Histone deacetylase 1 (Homo sapiens, UniProt Q13547); test: Inhibition of HDAC1
Histone deacetylase 1, sequence (Q13547 whole entry): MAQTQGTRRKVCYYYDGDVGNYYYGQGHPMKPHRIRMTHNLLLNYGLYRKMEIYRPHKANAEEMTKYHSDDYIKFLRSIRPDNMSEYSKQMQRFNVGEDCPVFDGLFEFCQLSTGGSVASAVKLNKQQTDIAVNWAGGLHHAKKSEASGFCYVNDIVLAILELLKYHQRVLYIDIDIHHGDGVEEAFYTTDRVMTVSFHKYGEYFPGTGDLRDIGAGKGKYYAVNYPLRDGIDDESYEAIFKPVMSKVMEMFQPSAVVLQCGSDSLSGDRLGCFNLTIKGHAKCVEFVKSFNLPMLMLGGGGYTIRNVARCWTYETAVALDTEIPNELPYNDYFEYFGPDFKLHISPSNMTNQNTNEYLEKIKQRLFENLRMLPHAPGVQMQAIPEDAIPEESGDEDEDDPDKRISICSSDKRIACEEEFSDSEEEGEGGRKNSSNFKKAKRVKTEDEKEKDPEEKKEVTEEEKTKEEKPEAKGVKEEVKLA

Histone deacetylase 4 [2] = target: T1, Histone deacetylase 4; test: Inhibition of HDAC4
[3] = target: T2, Protein deacetylase HDAC6 (Homo sapiens, UniProt Q9UBN7); test: Inhibition of HDAC6
T2 sequence (Q9UBN7 whole entry): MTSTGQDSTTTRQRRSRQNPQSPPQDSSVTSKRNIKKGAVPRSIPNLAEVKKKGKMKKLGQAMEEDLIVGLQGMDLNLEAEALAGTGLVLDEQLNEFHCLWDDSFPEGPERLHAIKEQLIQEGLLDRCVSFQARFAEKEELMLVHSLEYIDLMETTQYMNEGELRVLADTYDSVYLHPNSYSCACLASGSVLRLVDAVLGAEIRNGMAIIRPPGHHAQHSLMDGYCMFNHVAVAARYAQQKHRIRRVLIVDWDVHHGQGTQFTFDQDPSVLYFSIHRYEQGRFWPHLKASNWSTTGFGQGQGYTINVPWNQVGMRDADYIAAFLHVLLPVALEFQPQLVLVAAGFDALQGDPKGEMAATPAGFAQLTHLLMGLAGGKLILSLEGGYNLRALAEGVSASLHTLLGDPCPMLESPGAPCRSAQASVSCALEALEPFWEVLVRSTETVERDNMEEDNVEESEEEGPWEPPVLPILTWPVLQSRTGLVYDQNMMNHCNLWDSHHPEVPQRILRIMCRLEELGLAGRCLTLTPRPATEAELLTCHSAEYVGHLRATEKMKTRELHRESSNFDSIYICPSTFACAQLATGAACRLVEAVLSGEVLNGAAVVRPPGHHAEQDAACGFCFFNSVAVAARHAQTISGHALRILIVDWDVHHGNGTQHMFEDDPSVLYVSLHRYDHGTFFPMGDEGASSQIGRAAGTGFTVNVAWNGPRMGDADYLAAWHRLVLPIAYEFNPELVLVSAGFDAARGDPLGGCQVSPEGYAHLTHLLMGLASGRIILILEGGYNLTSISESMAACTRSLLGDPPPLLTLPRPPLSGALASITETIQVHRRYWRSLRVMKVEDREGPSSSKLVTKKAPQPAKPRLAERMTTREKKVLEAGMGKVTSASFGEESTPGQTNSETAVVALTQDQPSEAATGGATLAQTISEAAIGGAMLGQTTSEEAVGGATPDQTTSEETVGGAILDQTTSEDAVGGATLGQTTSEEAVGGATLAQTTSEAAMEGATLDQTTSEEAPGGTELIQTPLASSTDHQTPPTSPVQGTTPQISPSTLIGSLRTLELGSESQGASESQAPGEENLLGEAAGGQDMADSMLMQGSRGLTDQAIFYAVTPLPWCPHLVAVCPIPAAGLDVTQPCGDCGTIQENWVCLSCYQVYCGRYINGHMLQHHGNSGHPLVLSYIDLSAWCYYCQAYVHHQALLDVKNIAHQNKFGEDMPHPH

[4] = Selectivity ratio, IC50 for HDAC6 to IC50 for HDAC4

Structure (SMILES) | EC1000 (Histone deacetylase 4 [1]) [nM] | IC50 (Histone deacetylase 1) [nM] | IC50 (Histone deacetylase 4 [2]) [nM] | IC50 [3] [nM] | Ratio IC50 [4]
O=C(CCCCC[C@@H]1NC(=O)[C@H]2CCCN2C(=O)[C@@H]2CCCCCCCCCCC[C@@H](NC1=O)C(=O)N2)NO | 2.6 | 11 | 4.5 | 280 | 
O=C(CCCCC[C@@H]1NC(=O)[C@H]2CCCN2C(=O)[C@@H]2CCCCCCCCC[C@@H](NC1=O)C(=O)N2)NO | 92 | 9.1 | 5.4 | 330 | 
CCCCC[C@@H]1NC(=O)[C@@H](CCCCC)NC(=O)[C@H](CCCCCC(=O)NO)NC(=O)[C@H]2CCCN2C1=O (cyclo([Ahp(2)][dP][Asu](NHOH)[dAhp(2)])) | 13 | 25 | 12 | 340 | 
O=C(CCCCC[C@@H]1NC(=O)[C@H]2CCCN2C(=O)[C@@H]2CCCCCCCCCC[C@@H](NC1=O)C(=O)N2)NO | 7.2 | 9.1 | 5.5 | 410 | 75

Continued, values first:

EC1000 (Histone deacetylase 4 [1]) [nM] | IC50 (Histone deacetylase 1) [nM] | IC50 (Histone deacetylase 4 [2]) [nM] | IC50 [3] [nM] | Ratio IC50 [4] | Structure (SMILES)
20 |  |  |  |  | CC(/C=C/C(=O)NO)=C\[C@@H](C)C(=O)c1ccc(N(C)C)cc1
2 | 13 | 5 | 240 |  | O=C(CCCCC[C@@H]1NC(=O)[C@H]2CCCN2C(=O)[C@@H]2CCCCCCCCCCCC[C@@H](NC1=O)C(=O)N2)NO
